# Assay results reported in US20130338574A1, “ORAL MEDICINAL COMPOSITION FOR PATIENTS UNDERGOING PERITONEAL DIALYSIS AND METHOD FOR USING SAME” (TOKAI UNIVERSITY EDUCATIONAL SYSTEM, priority 2010, published 2013).
# Tested on: dicarbonyl compounds (3-deoxyglucosone) in the intraperitoneal fluid
# Experiment: 3-deoxyglucosone in intraperitoneal fluid of uremic rat models, acid peritoneal dialysis fluid (Experimental Example 2)
# Assay type: in vivo, Sprague-Dawley male rats
# Conditions: oral 30 mg/rat/day, 7 days
# Source text: The uremic rat models were produced using 7-week-old (body weight: 300 g or less) Sprague-Dawley male rats (CLEA Japan, Inc.) by the method described in NPL 27 and NPL 28. More specifically, the above rats were first subjected to 1/3 nephrectomy under anesthesia, and then to 1/2 nephrectomy after a week, thereby producing 5/6 nephrectomy rats (rats with kidney subtotal excision). These rats were allowed to freely take a standard diet for experimental rats (containing 1.06% calcium, 0.9% phosphate, and 21% protein; CE2: CLEA Japan, Inc.) and tap water until the eve of slaughter. […]
# When the quantitative analysis of pyridoxamine and dicarbonyl compounds (3-deoxyglucosone) in the samples was performed by liquid chromatography (HPLC), the above frozen test samples (serum and intraperitoneal fluid) were used after natural thawing at room temperature. […]
# The quantitative analysis of dicarbonyl compounds (3-deoxyglucosone) was performed by reversed-phase high-performance liquid chromatography (HPLC) under the following conditions. The quantitative analysis was performed using a standard calibration curve previously prepared by measurement under the following HPLC conditions using standard solutions of 3-deoxyglucosone of known concentrations. […]
# Detection: UV detection of absorbance at a wavelength of 315 nm (UV detector: Shimadzu Corporation)
structure (smiles),measurement,setting,value
"Cc1ncc(CO)c(CN)c1O.Cl.Cl [pyridoxamine dihydrochloride, Pyridoxamine dihydrochloride]",3-deoxyglucosone concentration in the peritoneal cavity relative to control group,acid peritoneal dialysis fluid,less than one-third
same,3-deoxyglucosone concentration in intraperitoneal fluid,"acid peritoneal dialysis fluid (pH 4.5 to 5.5) Dianeal PD-4 4.25, 20 ml i.p., control group 30.8",9.9 µg/mL
